Read-outs that look alike come from different tables or passages of the source.

The values below come from article PMC8124365 (International Journal of Molecular Sciences, 2021).

Data set [1] deals with PC-3 PIP. Also noted: method as in Umbricht et al., 2018 [60]. The note with it: Athymic nude BALB/c (PC-3 PIP), median survival, ref Umbricht et al., 2018 [60], cited from earlier work.
Data set [2] has as its system LNCaP. The note with it: cited from earlier work; for Kidney Uptake / Tumour Uptake: NOD-SCID gamma (LNCaP), ref Kuo et al., 2018 [30].
Data set [3] has as its system LNCaP. Set-up: method as in Benesova et al., 2015 [31]. The note with it: BALB/c nu/nu (LNCaP), ref Benesova et al., 2015 [31], cited from earlier work.
Data set [4] has as its system PC-3 PIP. Also noted: method as in Benesova et al., 2018 [33]. The note with it: Athymic nude BALB/c (PC-3 PIP), ref Benesova et al., 2018 [33], cited from earlier work.
Data set [5] concerns LNCaP. The note with it: cited from earlier work; for Kidney Uptake / Tumour Uptake: BALB/c nu/nu (LNCaP), ref Kelly et al., 2018 [32].
In data set [6] the test system is RM1-PGLS. Also noted: method as in Fendler et al., 2017 [36]. The note with it: C57BL/6 (RM1-PGLS), median survival, ref Fendler et al., 2017 [36], cited from earlier work.
Data set [7] concerns PC-3 PIP. Also noted: method as in Banerjee et al., 2019 [3]. The note with it: 111 MBq; NOD-SCID gamma (PC-3 PIP); median survival; ref Banerjee et al., 2019 [3]; cited from earlier work.
The test system of data set [8] is LNCaP. Also noted: method as in Kuo et al., 2018 [30]. The note with it: 18.5 MBq; NOD rag gamma (LNCaP); median survival; ref Kuo et al., 2018 [30]; cited from earlier work.
The test system of a further data set is tumour. Set-up: method as in Fendler et al. [36]. The note with it: after 4 days; ref Fendler et al. [36]; cited from earlier work.
Another data set has as its system C4-2 xenografts. Briefly: Biodistribution of radioligand in mice with C4-2 xenografts. The note with it: free ^212Pb control. Type of data set: in vivo, Hsd:Athymic Nude-Foxn1^nu mice. From the text: For the biodistribution and therapy studies, 105 male Hsd:Athymic Nude-Foxn1^nu mice bred at the Department of Comparative Medicine at the Norwegian Radium Hospital (Oslo University Hospital, Oslo, Norway) were used. For the toxicity study, 13 male BALB/cJRj mice from Janvier Labs (Le Genest-Saint-Isle, France) were used. The studies were approved by the Institutional Committee on Research Animal Care (Department of Comparative Medicine, Oslo University Hospital) and the Norwegian Food Safety Authority (Brumunddal, Norway, approval: FOTS ID 22197, 20/49651). All procedures and experiments involving animals in this study were performed in accordance with the Interdisciplinary Principles and Guidelines for the Use of Animals in Research, Marketing and Education (New York Academy of Sciences, New York, USA) and the EU Directive 2010/63/EU for animal experiments as well as the ARRIVE guidelines. The animals were maintained under specific pathogen-free conditions with ad libitum access to food and water. Cages (1–5 mice per cage) were housed in a scantainer, which was maintained at constant temperature (24 °C) and humidity (60%). The mice were around 4–6 weeks in age and weighed 25–35 g at the start of the study.
Mice were inoculated subcutaneously in both flanks with 10 × 10^6 C4-2 cells in supplement-free RPMI1640 medium mixed 1:1 with Matrigel Matrix (Corning, NY, USA) in a total volume of 200 µL. In one of the biodistribution experiments, mice were inoculated with 5 × 10^6 PC-3 cells (200 µL, 1:1 medium:Matrigel Matrix) as a negative control. The tumours were allowed to grow to reach a volume of 300–1500 mm^3 for the biodistribution studies and a volume of 30–300 mm^3 for the therapy studies, and tumour-bearing mice were randomised based on tumour size before radioligand injection. Mice were monitored 2–3 times per week for changes in body weight and tumour size and were euthanised by cervical dislocation if any of the following humane end points were reached: >20% weight loss from initial body weight, rapid weight loss (>10% within 2 days), tumours exceed 20 mm in any direction, ulcerate or interfere with normal behaviour, or any signs of severe sickness or discomfort.
At various time points after injection (from 15 min up to 48 h), organs/tissues were harvested, and radioligand uptake was calculated as a percentage of injected dose per gram tissue (%ID/g). Effective half-lives in selected organs were obtained by fitting monoexponential functions to the biodistribution data (Bq/g vs. time), normalised to 1 MBq/kg, (1) y(t)=a×e^−ln(2)×t/Teffective
The biological half-lives were then calculated by the following formula:(2) 1/Teffective=1/Tbiological+1/Tphysical

The subject of data set [9] is subcutaneous tumour models. The note with it: 0.02–0.1 MBq; ref [59],[61]; cited from earlier work.
The next data set relates to C4-2. The note with it: cited from earlier work; for TI: NOD-SCID gamma (C4-2), median survival, ref Stuparu et al., 2020 [59]; for Toxicity in treated mice: radiosensitive model, ref [59].
The subject of data set [10] is RM1-PGLS. The note with it: cited from earlier work.

With `O=C([O-])CN1CCN(CC(=O)[O-])CCN(CC(=O)NCC2CCC(C(=O)N[C@@H](Cc3ccc4ccccc4c3)C(=O)NCCCC[C@H](NC(=O)N[C@@H](CCC(=O)O)C(=O)O)C(=O)O)CC2)CCN(CC(=O)[O-])CC1.[177Lu+3]` (stereo partly drawn) [^177Lu-PSMA-617], the TI is given as 1.1 with PC-3 PIP [1] (2 MBq (2 MBq/nmol)); 1.8 with PC-3 PIP [1] (5 MBq (5 MBq/nmol)); 1.4 in the data set with RM1-PGLS [6] (30 MBq (62 MBq/nmol)); 1.9 in the data set with RM1-PGLS [6] (60 MBq (62 MBq/nmol)); 1.9 in the data set on RM1-PGLS [6] (120 MBq (62 MBq/nmol)); 3.9 in the data set with PC-3 PIP [7]. Moreover, the TI in the data set on LNCaP [8] is reported as 4.1. For the same compound, the “Kidney Uptake” value with LNCaP [2] (1h) is 97.2 ± 19.4 %ID/G; with LNCaP [2] (4h), 26.6 ± 19.1 %ID/G; with LNCaP [2] (24h), 0.6 ± 0.2 %ID/G; with LNCaP [3] (1h), 137.2 ± 77.8 %ID/G; with LNCaP [3] (24h), 2.1 ± 1.4 %ID/G; in the data set with PC-3 PIP [4] (1h), 9.8 ± 1.4 %ID/G. The “Kidney Uptake” value in the data set with PC-3 PIP [4] (4h) is reported as 3.4 ± 3.2 %ID/G; in the data set on PC-3 PIP [4] (24h), 0.8 ± 0.9 %ID/G; in the data set with LNCaP [5] (4h), 14.1 ± 3.1 %ID/G; with LNCaP [5] (24h) it was 0.7 ± 0.1 %ID/G. Moreover, the “Tumour Uptake” value with LNCaP [2] (1h) is 15.1 ± 5.6 %ID/G; in the data set on LNCaP [2] (4h) it was 14.5 ± 1.8 %ID/G; in the data set on LNCaP [2] (24h), 10.9 ± 3.3 %ID/G; with LNCaP [3] (1h), 11.2 ± 4.2 %ID/G; with LNCaP [3] (24h), 10.6 ± 4.5 %ID/G; in the data set on PC-3 PIP [4] (1h) it was 44.2 ± 12.0 %ID/G. In addition, the “Tumour Uptake” value with PC-3 PIP [4] (4h) was 56.0 ± 8.0 %ID/G; in the data set on PC-3 PIP [4] (24h), 37.3 ± 5.8 %ID/G; in the data set on LNCaP [5] (4h), 14.4 ± 1.1 %ID/G; in the data set on LNCaP [5] (24h), 4.6 ± 0.6 %ID/G. The Tumour level was 7 %ID/g in the data set with LNCaP [2] (after 5 days, ref Kuo et al. [30]); 3.5 %ID/g in the data set with LNCaP [5] (after 4 days, ref Kelly et al. [32]); 0.7 %ID/g in the data set on tumour.

In the case of `[212Pb+2]` [^212Pb^2+], in the data set on C4-2 xenografts (1–8 h post injection), the Uptake in kidneys is on record as 34.2–49.0 %ID/g and the Uptake in liver is 8.3–9.1 %ID/g. In addition, the Uptake in bones in the data set on C4-2 xenografts (at 1–4 h) is 7.3–10.4 %ID/g. Further, the Uptake in bones with C4-2 xenografts (at 8 h) is recorded as 1.0–2.6 %ID/g.

Take `O=C([O-])CC[C@H](NC(=O)N[C@@H](CCCCNC(=O)[C@H](Cc1ccc2ccccc2c1)NC(=O)[C@H]1CC[C@H](CNC(=O)CN2CCN(CC(=O)[O-])CCN(CC(=O)[O-])CCN(CC(=O)[O-])CC2)CC1)C(=O)[O-])C(=O)[O-].[225Ac].[H+].[H+].[H+]` [^225Ac-PSMA-617]: the “Therapeutic Index Range” value in [9] is on record as 1.1–6.7. The TI with C4-2 (0.02 MBq (0.13 MBq/nmol)) is listed as 3.6; in the data set with C4-2 (0.04 MBq (0.13 MBq/nmol)) it was 6.7; in the data set on C4-2 (0.10 MBq (0.13 MBq/nmol)), 4.2; in the data set on RM1-PGLS [10] (0.03 MBq (0.13 MBq/nmol), Athymic nude mice (RM1-PGLS), median survival, ref Czernin et al., 2020 [61]), 1.1. Also, the “Toxicity in treated mice” value in the data set with C4-2 (0.02 and 0.04 MBq) is given as “transient weight loss”; in the data set with C4-2 (0.10 MBq) it was “severe weight loss”; with RM1-PGLS [10] (0.03 MBq, more radioresistant model, ref [61]) it was “no signs of toxicity”.
